{
  "source": "patent US20250281456A1",
  "about": "“METHODS OF TREATING CANCER BY INHIBITING BACTERIAL DNAK TO RESTORE ACTIVITIES OF ANTICANCER DRUGS” (University of Maryland, Baltimore, priority 2022, published 2025)",
  "key": {"[1]": {"target": "eM-DnaK (Mycoplasma fermentans DnaK)", "experiment": "Surface plasmon resonance (SPR) binding of ARV-1502 to immobilized eM-DnaK", "conditions": "2274.9 RU eM-DnaK on CM5 chip, HBS-EP, 25° C., preliminary kinetic analysis", "description": "(§1) FIG. 17. A) Direct binding of eM-DnaK to ARV-1502 as determined by surface plasmon resonance (SPR). Association of ARV-1502 at different concentrations on 2274.9 response units of eM-DnaK immobilized on a CM5 biosensor chip proceeded at a flow rate of […] for 250 sec, followed by a 600 sec dissociation in HBS-EP.\nSurface plasmon resonance (SPR) binding studies of DnaK and ARV-1502 were performed at 25° C. on a BIAcore T100 System (BIAcore, Inc., Piscataway, NY). We used as assay buffer HBS-EP, containing 10 mM HEPES, 150 mM NaCl, 0.05% surfactant P20, pH 7.4, 3 mM EDTA. DnaK (2274.9 RUs) was immobilized on CM5 sensor chips using the amine-coupling chemistry recommended by the manufacturer. Analytes were introduced into the flow cells at 35 μl/min in the running buffer. Association and dissociation were assessed for 250 seconds and 600 seconds. Resonance signals were corrected for nonspecific binding by subtracting the background of the control flow-cell. After each analysis, the sensor chip surfaces were regenerated with 10 mM glycine solution (pH 2.0) with MgCl 1M and equilibrated with the buffer before the next injection."}, "AGS cells": {"tested_on": "AGS cells", "experiment": "cells", "description": "(§2) FIG. 11. […] Parallel wells of untreated cells were used as negative control. Cell viability was assessed by using the trypan blue assay. Percentage of alive cells for each treatment are calculated as percentage using the untreated cell as reference. […] Statistical differences were tested using Student's t test. All statistical tests were two sided. p=***<0.001, **<0.01, *<0.05, ns=not significant.\nas §2, with “14.” for “11.”, “p=*<0.05,” for “p=***<0.001,”, “***<0.001.” for “*<0.05, ns=not significant.”\n(§3) To determine the effects of eM and eF-DnaKs on HCT116 and AGS cells lines treated with different anti-cancer drugs, cells were plated 200,000 cells/well in 6-wells plates. After 24 h, both eM-DnaK and eF-DnaK were added to the cultures at a concentration of 10 ug/ml. […] Parallel cultures of untreated cells were the negative controls. […] After 48 h of treatment with the anti-cancer drugs, cell monolayers were washed in PBS, trypsinized and cell viability was measured using the trypan blue assay. The trypan blue exclusion assay allows for a direct identification and enumeration of live (unstained) and dead (blue) cells in the given population.\n(§4) More in detail, we pre-treated both exogenous DnaKs with ARV-1502 (25 μg/ml) before adding them to the culture of HCT116 or AGS cells. After 3 h of incubation the complex was added to the culture. After 24 h the cells were treated with the anti-cancer drugs and then subjected to count with trypan blue as previously described. Parallel cultures of cells treated with the drugs and DnaKs not complexed with ARV-1502 were used as control."}, "HCT116 cells [2]": {"tested_on": "HCT116 cells", "experiment": "cells", "description": "as §2\nas §2, with “14.” for “11.”, “p=*<0.05,” for “p=***<0.001,”, “***<0.001.” for “*<0.05, ns=not significant.”\nas §3, §4"}, "HCT116 cells [3]": {"tested_on": "HCT116 cells", "experiment": "Western blot of eM-DnaK entry into HCT116 cells after incubation with ARV-1502", "type": "cell-based, human", "conditions": "eM-DnaK incubated 3 hours with ARV-1502, added to cells 24 hours, then cisplatin 48 hours", "description": "as §1\nWestern blot was performed to verify the expression of DnaK in the mouse primary cancer cells, in the internalization of the exogenous DnaKs and to validate DnaK binding with ARV-1502. […] After 72 h since eM-DnaK treatment, cell monolayers were washed in cold PBS, trypsinized and resuspended in RIPA lysis buffer (Sigma-Aldrich, St. Louis, MO) in the presence of protease inhibitors (Sigma-Aldrich, St. Louis, MO). The protein concentration was measured by the Bradford assay (Bio-Rad Laboratories, Hercules, CA). Thirty micrograms of protein were resolved by SDS/PAGE, transferred to a polyvinylidene difluoride (PVDF) membrane using trans-blot turbo transfer system (Bio-Rad Laboratories, Hercules, CA), blocked in 5% nonfat dried milk in Tris-Buffered Saline (TBS) and probed overnight with either a mouse mAb against the V5 tag (#R960-25, Thermo Fisher Scientific, Walthman, MA) to detect the presence of eM-DnaK or a mouse mAb against […] (8H10D10) (#3700, Cell Signaling Technology, Danvers, MA). […]"}, "[4]": {"tested_on": "primary murine cancer cells constitutively expressing DnaK"}, "Escherichia coli DnaK": {"target": "Escherichia coli DnaK (Escherichia coli, UniProt P0A6Y8)", "sequence (P0A6Y8 whole entry)": "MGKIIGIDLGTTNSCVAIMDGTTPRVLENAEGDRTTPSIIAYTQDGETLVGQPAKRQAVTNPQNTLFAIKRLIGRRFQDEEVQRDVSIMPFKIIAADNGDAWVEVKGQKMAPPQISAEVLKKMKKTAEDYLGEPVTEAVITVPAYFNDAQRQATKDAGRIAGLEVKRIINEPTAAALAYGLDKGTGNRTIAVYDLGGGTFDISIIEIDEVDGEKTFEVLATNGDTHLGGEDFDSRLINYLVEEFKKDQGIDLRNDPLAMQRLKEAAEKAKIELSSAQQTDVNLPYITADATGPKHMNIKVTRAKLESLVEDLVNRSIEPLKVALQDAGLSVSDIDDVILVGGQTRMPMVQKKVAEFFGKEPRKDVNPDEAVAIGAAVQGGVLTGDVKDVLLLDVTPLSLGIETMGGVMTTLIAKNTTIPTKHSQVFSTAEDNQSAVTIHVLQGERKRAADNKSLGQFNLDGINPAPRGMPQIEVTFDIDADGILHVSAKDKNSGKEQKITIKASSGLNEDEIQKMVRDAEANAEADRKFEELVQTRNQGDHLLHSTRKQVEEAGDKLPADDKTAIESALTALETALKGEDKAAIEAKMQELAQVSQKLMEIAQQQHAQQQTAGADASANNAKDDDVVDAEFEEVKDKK", "conditions": "previously demonstrated; cited from earlier work"}, "human Hsp70": {"target": "human Hsp70 (Homo sapiens, UniProt P0DMV8)", "sequence (P0DMV8 whole entry)": "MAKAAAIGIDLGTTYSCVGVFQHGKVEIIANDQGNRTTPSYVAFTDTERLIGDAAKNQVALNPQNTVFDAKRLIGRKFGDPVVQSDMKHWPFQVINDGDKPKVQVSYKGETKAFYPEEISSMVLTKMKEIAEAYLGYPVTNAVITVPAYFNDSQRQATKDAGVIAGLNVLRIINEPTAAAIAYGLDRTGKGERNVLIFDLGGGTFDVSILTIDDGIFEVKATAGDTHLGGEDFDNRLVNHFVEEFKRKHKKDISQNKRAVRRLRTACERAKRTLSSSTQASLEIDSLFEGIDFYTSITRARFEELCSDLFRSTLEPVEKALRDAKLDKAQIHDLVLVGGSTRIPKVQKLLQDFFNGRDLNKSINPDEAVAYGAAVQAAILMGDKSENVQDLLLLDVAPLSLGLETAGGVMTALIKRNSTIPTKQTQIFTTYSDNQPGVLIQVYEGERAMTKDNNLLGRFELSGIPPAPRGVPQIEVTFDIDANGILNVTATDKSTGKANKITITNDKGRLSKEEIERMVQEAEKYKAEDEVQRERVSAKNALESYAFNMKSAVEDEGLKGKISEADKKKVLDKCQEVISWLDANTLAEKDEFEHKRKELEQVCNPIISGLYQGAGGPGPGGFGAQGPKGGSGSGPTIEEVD", "conditions": "previously demonstrated; cited from earlier work"}},
  "note": "Where a SMILES comes first, the peptide text is derived from it. [ ]: non-standard residue; d: D form. Ac6c = NC1(C(=O)O)CCCCC1",
  "data": [
    {"smiles": "CC(C)C[C@H](NC(=O)[C@H](Cc1ccc(O)cc1)NC(=O)[C@@H]1CCCN1C(=O)[C@H](CCCNC(=N)N)NC(=O)[C@@H]1CCCN1C(=O)[C@H](CCCCN)NC(=O)[C@H](CC(=O)O)NC(=O)[C@@H]1CCCN1C(=O)[C@H](CCCNC(=N)N)NC(=O)C1(N)CCCCC1)C(=O)N1CCC[C@H]1C(=O)N[C@@H](CCCNC(=N)N)C(=O)N1CCC[C@H]1C(=O)N[C@@H](CCCNC(=N)N)C(=O)N1CCC[C@H]1C(=O)N1CCC[C@H]1C(=O)N[C@@H](CCCNC(=N)N)C(=O)N1CCC[C@H]1C(=O)N[C@H](C(=O)N[C@@H](CCCNC(=N)N)C(N)=O)C(C)C", "note": "[ARV-1502] (H-[Ac6c]RPDKPRPYLPRPRPPRPVR-NH2; N-terminus and C-terminus assumed)", "values": [
      {"measurement": "Kd", "setting": "[1]", "value": 1.9, "unit": "µM"},
      {"measurement": "reduction in cell viability", "setting": "AGS cells; ARV-1502 alone, on average (data not shown)", "value": "5-8%"},
      {"measurement": "restoration of anti-cancer activity of cisplatin and 5FU", "setting": "AGS cells; in the presence of eF-DnaK pre-treated with ARV-1502 (25 μg/ml)", "value": "able to restore the drugs' anti-cancer activity"},
      {"measurement": "restoration of anti-cancer activity of cisplatin and 5FU", "setting": "AGS cells; in the presence of eM-DnaK pre-treated with ARV-1502 (25 μg/ml)", "value": "restoration of the original anti-cancer activity of each drug"},
      {"measurement": "reduction in cell viability", "setting": "HCT116 cells [2]; HCT116, ARV-1502 alone, on average (data not shown)", "value": "5-8%"},
      {"measurement": "restoration of anti-cancer activity of cisplatin and 5FU", "setting": "HCT116 cells [2]; HCT116, in the presence of eF-DnaK pre-treated with ARV-1502 (25 μg/ml)", "value": "able to restore the drugs' anti-cancer activity"},
      {"measurement": "restoration of anti-cancer activity of cisplatin and 5FU", "setting": "HCT116 cells [2]; HCT116, in the presence of eM-DnaK pre-treated with ARV-1502 (25 μg/ml)", "value": "restoration of the original anti-cancer activity of each drug"},
      {"measurement": "eM-DnaK entry into HCT116 cells", "setting": "HCT116 cells [3]", "value": "does not prevent eM-DnaK entry into HCT116 cells"},
      {"measurement": "inhibitory effect", "setting": "[4]; ARV-1502 alone", "value": 11, "unit": "%"},
      {"measurement": "improved anti-cancer effect", "setting": "[4]; ARV-1502 with cisplatin or 5FU versus drug alone, for both drugs", "value": 25, "unit": "%"},
      {"measurement": "DnaK binding and ATPase activity", "setting": "Escherichia coli DnaK", "value": "bind the Escherichia coli DnaK substrate-binding domain and to reduce its ATPase activity"},
      {"measurement": "interaction with human Hsp70", "setting": "human Hsp70", "value": "without interacting with human Hsp70"}
    ]}
  ]
}
